Results published in patent US9040717B2, “Pyrazole-amide compounds and pharmaceutical use thereof” (JAPAN TOBACCO INC., priority 2013, dated 2015).

Key:
human PDHK1 (hPDHK1) = human PDHK1 (hPDHK1) (Homo sapiens (Human), UniProt Q15118); assay: Inhibitory action of PDHK1 activity in vitro (residual PDH activity after kinase reaction); format: biochemical
Method: (§1) The inhibitory action of PDHK activity was assessed indirectly by measuring the residual PDH activity after kinase reaction in the presence of a test compound.
The recombinant construct was transformed into Escherichia coli (DH5α-TOYOBO). The recombinant clones were identified, and plasmid DNA was isolated and subjected to the DNA sequence analysis. One clone which had the expected nucleic acid sequence was selected for expression work.
The Escherichia coli were grown to an optical density 0.6 ([…]) at 30° C. Protein expression was induced by the addition of 500 μmol/L isopropyl-β-thiogalactopyranoside. The Escherichia coli were cultured at 30° C. for 5 hr and harvested by centrifugation. Resuspension of the Escherichia coli paste was disrupted by a microfluidizer.
The eluted fractions containing FLAG-Tagged protein were pooled, dialyzed against 20 mmol/L HEPES-NaOH, 150 mmol/L sodium chloride, 0.5 mmol/L ethylenediamine tetraacetic acid (EDTA), 1% ethylene glycol, and 0.1% Pluronic F-68 (pH 8.0), and preserved at −80° C.
The mixture was incubated at room temperature for 90 min, and the residual PDH activity was measured.
The absorbance at 340 nm before and after PDH reaction was measured using a microplate reader to detect NADH produced by the PDH reaction.

[1] = test system: adipose tissue PDH activity; assay: Ex vivo PDH activation assay, adipose tissue; format: in vivo, Sprague-Dawley rats; settings: non-fasting SD rats, vehicle 31 ± 10, mean ± S.D. (n = 3)
Method: (§2) The action of test compound on tissue PDH activity was evaluated. NADH production was detected via p-iodonitrotetrazolium violet (INT)-coupled system to measure PDH activity.
(§3) Normal male Sprague-Dawley rats were randomly allocated to the vehicle group and the test compound groups. The vehicle (0.5% aqueous methylcellulose solution, 5 mL/kg) or the test compound was orally administered to the rats. At 5 or 20 hr after administration, the rats were anesthetized with an intraperitoneal injection of sodium pentobarbital (60 mg/kg), and liver slices and epididymal adipose tissues were collected.
(§4) To the adipose tissues were rapidly added 3 volumes of an ice-cold homogenization buffer, and the mixtures were homogenized using a Polytron homogenizer. The homogenates were centrifuged at 600×g, 4° C. for 10 min to obtain the supernatant. The supernatants were centrifuged at 16,000×g, 4° C. for 10 min to collect the precipitates. The precipitates were washed by resuspension in the homogenization buffer (1 mL) and centrifuged in the same manner. The precipitates were frozen with liquid nitrogen and stored at −80° C. as the adipose tissue mitochondrial fraction.
(§5) The mitochondrial fractions were thawed and suspended with the sample buffer (0.25 mol/L sucrose, 20 mmol/L tris(hydroxymethyl)aminomethane hydrochloride (pH 7.5), 50 mmol/L potassium chloride, and 1 mL/L 4-(1,1,3,3-tetramethylbutyl)phenyl-polyethylene glycol (Triton X-100)). Active PDH activity (PDHa activity) and total PDH activity (PDHt activity) were measured to evaluate the PDH activity. For the measurement of the PDHt activity, equal amounts of the mitochondrial suspension and the activation buffer (0.25 mol/L sucrose, 20 mmol/L tris(hydroxymethyl)aminomethane hydrochloride (pH 7.5), 50 mmol/L potassium chloride, 1 mL/L Triton X-100, 4 mmol/L calcium chloride, 40 mmol/L magnesium chloride, 10 mmol/L sodium dichloroacetate) were mixed, and the mixtures were incubated at 37° C. for 10 min. Forty microliters of the mitochondrial suspensions diluted with a sample buffer were added to a 96-well microplate for activity measurement and blank measurement. Then 180 μL of the reaction mixture (0.056 mmol/L potassium phosphate buffer (pH 7.5), 5.6 mmol/L DL-carnitine, 2.8 mmol/L NAD, 0.22 mmol/L thiamin pyrophosphate, 0.11 mmol/L Coenzyme A, 1.1 mL/L Triton X-100, 1.1 mmol/L magnesium chloride, 1.1 g/L bovine serum albumin, 0.67 mmol/L INT, 7.2 μmol/L phenazine methosulfate, 28 mmol/L sodium oxamate) was added to each well, and then 20 μL of 50 mmol/L sodium pyruvate for activity measurement or water for blank measurement were added. The mixtures were incubated at room temperature under shading. The absorbances at 500-750 nm, which were attributable to reduction of INT, the final electron acceptor, were measured using a microplate reader over time and the changes in the absorbance were calculated. The PDH activity was calculated by subtraction of the change in absorbance of the blank well from that of the activity measurement well. The percentage of the PDHa activity to the PDHt activity was calculated and taken as an index of the PDH activation.

human PDHK2 (hPDHK2) = human PDHK2 (hPDHK2) (Homo sapiens (Human), UniProt Q15119); assay: Inhibitory action of PDHK2 activity in vitro (residual PDH activity after kinase reaction); format: biochemical; settings: monohydrate
Method: as §1
In the case of human PDHK2 (hPDHK2, Genbank Accession No. BC040478.1), modified hPDHK2 cDNA wherein FLAG-Tag sequence was added to the N terminus of hPDHK2 cDNA clone (pReceiver-M01/PDK2-GeneCopoeia) was prepared by PCR and cloned into a vector (pET17b-Novagen). The recombinant construct was transformed into Escherichia coli (DH5α-TOYOBO). The recombinant clones were identified, and plasmid DNA was isolated and subjected to the DNA sequence analysis. One clone which had the expected nucleic acid sequence was selected for expression work.
For expression of hPDHK2 activity, Escherichia coli strain BL21(DE3) cells (Novagen) were transformed with the pET17b vector containing modified hPDHK2 cDNA. The Escherichia coli were grown to an optical density 0.6 ([…]) at 30° C. Protein expression was induced by the addition of 500 μmol/L isopropyl-β-thiogalactopyranoside. The Escherichia coli were cultured at 30° C. for 5 hr and harvested by centrifugation. Resuspension of the Escherichia coli paste was disrupted by a microfluidizer. FLAG-Tagged protein was purified using FLAG affinity gel. […]
0.05 U/mL PDH and 0.8 μg/mL hPDHK2 were mixed in a buffer (50 mmol/L 3-morpholinopropanesulfonic acid (pH 7.0), 20 mmol/L dipotassium hydrogen phosphate, 60 mmol/L potassium chloride, 2 mmol/L magnesium chloride, 0.4 mmol/L EDTA, and 0.2% Pluronic F-68, 2 mmol/L dithiothreitol), and the mixture was incubated at 4° C. overnight to obtain a PDH/hPDHK2 complex. […] The mixture was incubated at room temperature for 90 min, and the residual PDH activity was measured. The absorbance at 340 nm before and after PDH reaction was measured using a microplate reader to detect NADH produced by the PDH reaction. The hPDHK2 inhibition rate (%) of the test compound was calculated from the formula [{(PDH activity of test compound−PDH activity of control)/PDH activity of blank−PDH activity of control)}×100].

liver PDH activity = assay: Ex vivo PDH activation assay, liver; format: in vivo, Sprague-Dawley rats; settings: non-fasting SD rats, vehicle 13 ± 3, mean ± S.D. (n = 3)
Method: as §2, §3
as §4, with “liver slices” for “adipose tissues”, “9” for “3”, “of” for “of an”, “buffer (0.25 mol/L sucrose, 5 mmol/L tris(hydroxymethyl)aminomethane hydrochloride (pH 7.5), 2 mmol/L EDTA),” for “buffer,”, “supernatants (1 mL)” for “supernatants”, “liver” for “adipose tissue”
as §5

[2] = Table 2, 5 hr after oral 3 mg/kg
[3] = Table 2, 20 hr after oral 3 mg/kg

human PDHK1 (hPDHK1), sequence (Q15118 29-436): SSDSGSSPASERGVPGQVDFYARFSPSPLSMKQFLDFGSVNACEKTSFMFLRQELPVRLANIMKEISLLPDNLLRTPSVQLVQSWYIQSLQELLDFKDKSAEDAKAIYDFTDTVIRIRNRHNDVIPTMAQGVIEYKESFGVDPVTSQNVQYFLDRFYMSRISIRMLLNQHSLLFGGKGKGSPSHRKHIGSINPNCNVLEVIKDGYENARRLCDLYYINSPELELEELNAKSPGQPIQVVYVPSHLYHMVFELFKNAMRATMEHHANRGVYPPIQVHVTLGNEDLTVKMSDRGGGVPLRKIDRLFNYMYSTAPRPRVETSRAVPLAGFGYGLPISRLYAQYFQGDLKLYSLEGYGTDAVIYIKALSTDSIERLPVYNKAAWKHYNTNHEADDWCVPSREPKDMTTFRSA

## CC(C)(O)CCOc1cc(-c2cnn(C(C)(C)C(N)=O)c2)c2c(c1)[C@@](O)(C(F)(F)F)c1ccccc1-2 [Compound (2h), 2-{4-[(9R)-9-hydroxy-2-(3-hydroxy-3-methylbutyloxy)-9-(trifluoromethyl)-9H-fluoren-4-yl]-1H-pyrazol-1-yl}-2-methylpropanamide monohydrate]
Human PDHK1 (hPDHK1)
  IC50: 6.6 nM
[1]; [2]
  PDHa activity (% of PDHt activity): 59 ± 2 % of PDHt activity
[1]; [3]
  PDHa activity (% of PDHt activity): 44 ± 12 % of PDHt activity
Human PDHK2 (hPDHK2)
  IC50: 4.9 nM
Liver PDH activity; [2]
  PDHa activity (% of PDHt activity): 59 ± 6 % of PDHt activity
Liver PDH activity; [3]
  PDHa activity (% of PDHt activity): 31 ± 5 % of PDHt activity
